This note sets out measurements from patent publication US6518303B2, “2-phenylpyran-4-one derivatives” (Almirall Prodesfarma S.A., priority 1999, dated 2003).

As for `COCc1cc(=O)c(-c2ccc(Cl)cc2)c(-c2ccc(S(C)(=O)=O)cc2)o1` (hydrate or solvate) [Compound 63, 3-(4-chlorophenyl)-2-(4-methanesulfonylphenyl)-6-methoxymethylpyran-4-one], the melting point (usually the temperature, or range, at which the solid turns liquid) came out at 162 °C.
As for `Cc1cc(=O)c(-c2ccccc2)c(-c2ccc(S(C)(=O)=O)cc2)o1` [Compound 1, 2-(4-methanesulfonylphenyl) -6-methyl-3-phenylpyran-4-one], the figure is 185 °C; as for `Cc1cc(=O)c(-c2cccc(F)c2)c(-c2ccc(S(C)(=O)=O)cc2)o1` [Compound 3, 3-(3-fluorophenyl)-2-(4-methanesulfonylphenyl)-6-methylpyran-4-one], 182 °C; as for `Cc1cc(=O)c(-c2cccc(Cl)c2)c(-c2ccc(S(C)(=O)=O)cc2)o1` [Compound 6, 3-(3-chlorophenyl)-2-(4-methanesulfonylphenyl)-6-methylpyran-4-one], 131 °C.
In the case of `Cc1cc(=O)c(-c2ccccc2Cl)c(-c2ccc(S(C)(=O)=O)cc2)o1` [Compound 7, 3-(2-chlorophenyl)-2-(4-methanesulfonylphenyl)-6-methylpyran-4-one] it was 148 °C.
Compound `Cc1ccc(-c2c(-c3ccc(S(C)(=O)=O)cc3)oc(C)cc2=O)cc1` [Compound 10, 2-(4-methanesulfonylphenyl)-6-methyl-3-p-tolylpyran-4-one] had a melting point of 205 °C.
As for `Cc1cccc(-c2c(-c3ccc(S(C)(=O)=O)cc3)oc(C)cc2=O)c1` [Compound 11, 2-(4-methanesulfonylphenyl)-6-methyl-3-m-tolylpyran-4-one], the figure is 126 °C; as for `Cc1cc(=O)c(-c2ccccc2C)c(-c2ccc(S(C)(=O)=O)cc2)o1` [Compound 12, 2-(4-methanesulfonylphenyl)-6-methyl-3-o-tolylpyran-4-one], 91 to 93 °C.
As for `Cc1cc(=O)c(-c2ccc(C(F)(F)F)cc2)c(-c2ccc(S(C)(=O)=O)cc2)o1` [Compound 13, 2-(4-methanesulfonylphenyl)-6-methyl-3-(4-trifluoromethylphenyl)pyran-4-one], the figure is 172 °C; as for `Cc1cc(=O)c(-c2ccc(F)c(F)c2)c(-c2ccc(S(C)(=O)=O)cc2)o1` [Compound 16, 3-(3,4-difluorophenyl)-2-(4-methanesulfonylphenyl)-6-methylpyran-4-one], 207 °C; as for `Cc1cc(=O)c(-c2cc(F)cc(F)c2)c(-c2ccc(S(C)(=O)=O)cc2)o1` [Compound 17, 3-(3,5-difluorophenyl)-2-(4-methanesulfonylphenyl)-6-methylpyran-4-one], 210 °C.
In the case of `Cc1cc(=O)c(-c2cc(F)ccc2F)c(-c2ccc(S(C)(=O)=O)cc2)o1` [Compound 18, 3-(2,5-difluorophenyl)-2-(4-methanesulfonylphenyl)-6-methylpyran-4-one] it was 183 °C; in that of `Cc1cc(=O)c(-c2c(F)cccc2F)c(-c2ccc(S(C)(=O)=O)cc2)o1` [Compound 19, 3-(2,6-difluorophenyl)-2-(4-methanesulfonylphenyl)-6-methylpyran-4-one], 206 °C.
`Cc1cc(=O)c(-c2ccc(Cl)cc2Cl)c(-c2ccc(S(C)(=O)=O)cc2)o1` [Compound 21, 3-(2,4-dichlorophenyl)-2-(4-methanesulfonylphenyl)-6-methylpyran-4-one] gave a melting point of 203 °C.
As for `Cc1cc(=O)c(-c2ccc(F)cc2Cl)c(-c2ccc(S(C)(=O)=O)cc2)o1` [Compound 27, 3-(2-chloro-4-fluorophenyl)-2-(4-methanesulfonylphenyl)-6-methylpyran-4-one], the figure is 113 °C; as for `Cc1cc(=O)c(-c2ccc(C)c(Cl)c2)c(-c2ccc(S(C)(=O)=O)cc2)o1` [Compound 29, 3-(3-chloro-4-methylphenyl)-2-(4-methanesulfonylphenyl)-6-methylpyran-4-one], 176 °C.
